The compounds below were run against PKC delta kinase (Homo sapiens, UniProt Q05655) (assay: PKC Delta (coupled enzyme assay)). Settings: not given.
Format: biochemical
Protocol: (§1) An assay buffer solution was prepared which consisted of 100 mM HEPES (pH 7.5), 10 mM MgCl2, 25 mM NaCl, 0.1 mM EDTA and 0.01% Brij. […] To 16 μL of this enzyme buffer, in a 384 well plate, was added 1 μL of VRT stock solution in DMSO. The mixture was allowed to equilibrate for 10 mins at 30° C. […] Ki values were calculated from initial rate data by non-linear regression using the Prism software package (Prism 4.0a, Graphpad Software, San Diego, Calif.).

Sequence of PKC delta kinase (Q05655 whole entry): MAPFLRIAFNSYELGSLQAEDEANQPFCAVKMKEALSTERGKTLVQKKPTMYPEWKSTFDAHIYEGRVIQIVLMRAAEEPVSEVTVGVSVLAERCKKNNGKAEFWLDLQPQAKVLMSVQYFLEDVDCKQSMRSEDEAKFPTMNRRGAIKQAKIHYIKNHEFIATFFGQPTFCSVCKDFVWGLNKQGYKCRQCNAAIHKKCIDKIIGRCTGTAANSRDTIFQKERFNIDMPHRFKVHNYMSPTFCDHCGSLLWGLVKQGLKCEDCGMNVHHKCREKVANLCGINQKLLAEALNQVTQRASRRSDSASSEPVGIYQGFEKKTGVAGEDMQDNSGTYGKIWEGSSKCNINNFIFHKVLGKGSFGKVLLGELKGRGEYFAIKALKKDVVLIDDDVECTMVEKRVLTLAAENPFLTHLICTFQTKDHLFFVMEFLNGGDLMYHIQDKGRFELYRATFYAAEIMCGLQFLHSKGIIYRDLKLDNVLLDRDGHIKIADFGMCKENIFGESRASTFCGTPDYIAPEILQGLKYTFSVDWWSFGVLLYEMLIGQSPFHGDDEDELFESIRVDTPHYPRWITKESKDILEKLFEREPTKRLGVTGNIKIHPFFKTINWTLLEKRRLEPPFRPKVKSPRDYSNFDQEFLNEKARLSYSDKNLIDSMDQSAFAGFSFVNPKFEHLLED

Ki	SMILES
500 to 2800 nM	CN1CCCN(c2cccc(C(=O)c3cccnc3N)n2)CC1 [compound 82]

Same assay, conditions: 150 μM ATP, 46 nM PKC delta; read-out: Ki PKC delta

Ki	SMILES
50 to 500 nM	Nc1ncccc1C(=O)c1nc(OCCC(N)c2ccccc2)ccc1C(F)(F)F (centres unmarked) [compound 427]
50 to 500 nM	Nc1ncccc1C(=O)c1cccc(N2CCCN(C(=O)CC(F)(F)F)CC2)n1 [compound 23]
500 to 2800 nM	CC(C)C[C@H]1CN(c2ccc(C(F)(F)F)c(C(=O)c3cccnc3N)n2)C[C@H](C)N1 [compound 483]
50 to 500 nM	CC(C)(CN)CNc1ccc(C(F)(F)F)c(C(=O)c2cccnc2N)n1 [compound 425]
> 2800 nM	NCC1CCC(CNc2ccc(C(F)(F)F)c(C(=O)c3cccnc3N)n2)CC1 (centres unmarked) [compound 451]
50 to 500 nM	Cc1cnc(N)c(C(=O)c2nc(N3CCN[C@@H](CC(C)C)C3)ccc2C(F)(F)F)c1 [compound 499]
50 to 500 nM	CCCC1CN(c2ccc(C(F)(F)F)c(C(=O)c3cccnc3N)n2)CCCN1 (centres unmarked) [compound 437]
50 to 500 nM	Nc1ncccc1C(=O)c1nc(N2CCNC(C3CC3)C2)ccc1C(F)(F)F (centres unmarked) [compound 442]
50 to 500 nM	C=C(F)c1ccc(N2CCN[C@H](c3ccccc3)C2)nc1C(=O)c1cccnc1N [compound 474]
50 to 500 nM	CC[C@@](CN)(CNc1ccc(C(F)(F)F)c(C(=O)c2cccnc2N)n1)c1ccccc1 [compound 462]
50 to 500 nM	Nc1ncc(C(F)(F)F)cc1C(=O)c1cccc(N2CCCNCC2)n1 [compound 140]
50 to 500 nM	CC(C)(O)CC1CN(c2ccc(C(F)(F)F)c(C(=O)c3cccnc3N)n2)CCN1 (centres unmarked) [compound 459]
50 to 500 nM	CC(C)(F)CC1CN(c2ccc(C(F)(F)F)c(C(=O)c3cccnc3N)n2)CCN1 (centres unmarked) [compound 464]
500 to 2800 nM	Nc1ncccc1C(=O)c1cccc(N2CCCN(CCc3ccccc3)CC2)n1 [compound 120]
50 to 500 nM	CCC1CN(c2ccc(C(F)(F)F)c(C(=O)c3cccnc3N)n2)CCN1 (centres unmarked) [compound 432]
50 to 500 nM	Nc1ncc(Cl)cc1C(=O)c1nc(N2CCNC(c3ccccc3)C2)ccc1C(F)(F)F (centres unmarked) [compound 496]
50 to 500 nM	C=Cc1cnc(N)c(C(=O)c2nc(N3CCN[C@@H](CC(C)C)C3)ccc2C(F)(F)F)c1 [compound 487]
50 to 500 nM	Nc1ncc(Br)cc1C(=O)c1nc(N2CCC(N)CC2)cs1 [compound 134]
50 to 500 nM	CC(C)C[C@H]1CN(c2ccc(C(F)(F)F)c(C(=O)c3cc(Cl)cnc3N)n2)CCN1 [compound 480]
500 to 2800 nM	Nc1ncccc1C(=O)c1nc(N2CCNC(CC(F)(F)F)C2)ccc1C(F)(F)F (centres unmarked) [compound 491]

Ki	SMILES
50 to 500 nM	CC(C)C[C@H]1CN(c2ccc(C(F)(F)F)c(C(=O)c3cccnc3N)n2)CC2(CCC2)N1 [compound 471]
50 to 500 nM	CC#Cc1ccc(N2CCN[C@H](c3ccccc3)C2)nc1C(=O)c1cccnc1N [compound 465]
50 to 500 nM	Nc1ncccc1C(=O)c1nc(N2CCNC(CC3CC3)C2)ccc1C(F)(F)F (centres unmarked) [compound 441]
50 to 500 nM	C[C@H]1CN(c2ccc(C(F)(F)F)c(C(=O)c3cccnc3N)n2)CCN1 [compound 478]
50 to 500 nM	CC(C)N1CCCN(c2cccc(C(=O)c3cccnc3N)n2)CC1 [compound 116]
50 to 500 nM	CC(C)C[C@H]1CN(c2ccc(C(F)(F)F)c(C(=O)c3cc(Br)cnc3N)n2)CCN1 [compound 479]
500 to 2800 nM	CC(C)(C)CN1CCCN(c2cccc(C(=O)c3cccnc3N)n2)CC1 [compound 126]
> 2800 nM	Nc1ncccc1C(=O)c1nc(OCC(N)C2CCOCC2)ccc1C(F)(F)F (centres unmarked) [compound 433]
500 to 2800 nM	Nc1ncc(Br)cc1C(=O)c1cccc(N2CCCN(C(=O)Cc3cccc(O)c3)CC2)n1 [compound 70]
50 to 500 nM	CCCC1CN(c2ccc(C(F)(F)F)c(C(=O)c3cccnc3N)n2)CCN1 (centres unmarked) [compound 434]
50 to 500 nM	CCC(N)(COc1ccc(C(F)(F)F)c(C(=O)c2cccnc2N)n1)c1ccccc1 (centres unmarked) [compound 440]
50 to 500 nM	C=C(F)c1ccc(N2CCN[C@@H](CC(C)(C)F)C2)nc1C(=O)c1cccnc1N [compound 506]
> 2800 nM	CC(C)(C)C1CN(c2ccc(C(F)(F)F)c(C(=O)c3cccnc3N)n2)CCN1 (centres unmarked) [compound 456]
500 to 2800 nM	COCC1CN(c2ccc(C(F)(F)F)c(C(=O)c3cccnc3N)n2)CCN1 (centres unmarked) [compound 455]
500 to 2800 nM	CC(C)(C)CCN1CCCN(c2cccc(C(=O)c3cc(Br)cnc3N)n2)CC1 [compound 76]
50 to 500 nM	Nc1ncc(Br)cc1C(=O)c1cccc(N2CCC(N3CCCC3)CC2)n1 [compound 121]
50 to 500 nM	Nc1ncccc1C(=O)c1nc(N2CCNC(C(F)(F)F)C2)ccc1C(F)(F)F (centres unmarked) [compound 477]
50 to 500 nM	CC(C)C(O)C1CN(c2ccc(C(F)(F)F)c(C(=O)c3cccnc3N)n2)CCN1 (centres unmarked) [compound 461]
50 to 500 nM	NCC1CCCC(CNc2ccc(C(F)(F)F)c(C(=O)c3cccnc3N)n2)C1 (centres unmarked) [compound 429]
50 to 500 nM	CCC(N)(CNc1ccc(C(F)(F)F)c(C(=O)c2cccnc2N)n1)c1ccccc1 (centres unmarked) [compound 444]

Ki	SMILES
500 to 2800 nM	Nc1ncccc1C(=O)c1nc(NCC2CCC(N)CC2)ccc1C(F)(F)F (centres unmarked) [compound 460]
50 to 500 nM	Nc1ncccc1C(=O)c1cccc(N2CCCN(CC3CC3)CC2)n1 [compound 117]
50 to 500 nM	CC(C)CC(C)(N)CNc1ccc(C(F)(F)F)c(C(=O)c2cccnc2N)n1 (centres unmarked) [compound 443]
500 to 2800 nM	Cc1ccsc1C(=O)N1CCCN(c2cccc(C(=O)c3cccnc3N)n2)CC1 [compound 27]
50 to 500 nM	CC[C@H]1CN(c2ccc(C(F)(F)F)c(C(=O)c3cccnc3N)n2)C[C@H](C(C)C)N1 [compound 473]
50 to 500 nM	Cc1sc(N2CCN[C@@H](CC(C)C)C2)nc1C(=O)c1cccnc1N [compound 505]
50 to 500 nM	CCc1cnc(N)c(C(=O)c2cccc(N3CCCNCC3)n2)c1 [compound 105]
50 to 500 nM	COCC#Cc1cnc(N)c(C(=O)c2cccc(N3CCCNCC3)n2)c1 [compound 138]
50 to 500 nM	CCN1CCCN(c2cccc(C(=O)c3cc(Br)cnc3N)n2)CC1 [compound 115]
50 to 500 nM	CCc1cnc(N)c(C(=O)c2nc(N3CCN[C@@H](CC(C)C)C3)ccc2C(F)(F)F)c1 [compound 486]
50 to 500 nM	CC(C)[C@H]1CN(c2ccc(C(F)(F)F)c(C(=O)c3cccnc3N)n2)C[C@H](c2ccccc2)N1 [compound 450]
> 2800 nM	CC1CCCCC1C(=O)N1CCCN(c2cccc(C(=O)c3cccnc3N)n2)CC1 (centres unmarked) [compound 93]
500 to 2800 nM	Cc1ccsc1CN1CCCN(c2cccc(C(=O)c3cccnc3N)n2)CC1 [compound 106]
500 to 2800 nM	CCC(=O)N1CCCN(c2cccc(C(=O)c3cccnc3N)n2)CC1 [compound 20]
500 to 2800 nM	CC(C)C(=O)N1CCCN(c2cccc(C(=O)c3cc(Br)cnc3N)n2)CC1 [compound 71]
50 to 500 nM	Nc1ncc(Br)cc1C(=O)c1cccc(N2CCCN(CC3CC3)CC2)n1 [compound 113]
50 to 500 nM	Nc1ncccc1C(=O)c1nc(N2CCN[C@@H](c3ccccc3)C2)ccc1C(F)(F)F [compound 448]
50 to 500 nM	C[C@@H]1CNCCN1c1ccc(C(F)(F)F)c(C(=O)c2cccnc2N)n1 [compound 484]
> 2800 nM	Cn1cc(-c2cccc(C(=O)c3cccnc3N)n2)cn1 [compound 292]

SMILES	Ki
Nc1ncccc1C(=O)c1nc(N2CC3CCC(C2)N3)ccc1C(F)(F)F [compound 466]	50 to 500 nM

Each compound was assayed against PKC alpha kinase (Homo sapiens, UniProt P17252) (assay: PKC Alpha (coupled enzyme assay)). Settings: 130 μM ATP, 4.5 nM PKC alpha.
Format: biochemical
Protocol: as §1, with “EDTA, 100 μM CaCl2” for “EDTA”

Ki	SMILES
500 to 2800 nM	CC(C)C[C@H]1CN(c2ccc(C(F)(F)F)c(C(=O)c3cccnc3N)n2)C[C@H](C)N1 [compound 483]
500 to 2800 nM	CC(C)(CN)CNc1ccc(C(F)(F)F)c(C(=O)c2cccnc2N)n1 [compound 425]
> 2800 nM	NCC1CCC(CNc2ccc(C(F)(F)F)c(C(=O)c3cccnc3N)n2)CC1 (centres unmarked) [compound 451]
< 50 nM	Nc1ncccc1C(=O)c1nc(N2CCNC(c3cccc(Cl)c3)C2)ccc1C(F)(F)F (centres unmarked) [compound 497]
< 50 nM	CCC[C@@H]1CN(c2ccc(C(F)(F)F)c(C(=O)c3cccnc3N)n2)C[C@H](CC(C)C)N1 [compound 494]
< 50 nM	C=C(F)c1ccc(N2CCN[C@@H](CC(C)C)C2)nc1C(=O)c1cccnc1N [compound 424]
500 to 2800 nM	CC(C)(F)CC1CN(c2ccc(C(F)(F)F)c(C(=O)c3cccnc3N)n2)CCN1 (centres unmarked) [compound 464]
< 50 nM	C=Cc1cnc(N)c(C(=O)c2nc(N3CCN[C@@H](CC(C)C)C3)ccc2C(F)(F)F)c1 [compound 487]
> 2800 nM	Nc1ncccc1C(=O)c1nc(N2CCNC(CC(F)(F)F)C2)ccc1C(F)(F)F (centres unmarked) [compound 491]
< 50 nM	C=C(F)c1ccc(N2CCNC(c3cccc(Cl)c3)C2)nc1C(=O)c1cccnc1N (centres unmarked) [compound 476]
500 to 2800 nM	CC#Cc1ccc(N2CCN[C@H](c3ccccc3)C2)nc1C(=O)c1cccnc1N [compound 465]
> 2800 nM	Nc1ncccc1C(=O)c1nc(OCC(N)C2CCOCC2)ccc1C(F)(F)F (centres unmarked) [compound 433]
< 50 nM	CC(C)C[C@H]1CN(c2ccc(C(F)(F)F)c(C(=O)c3cccnc3N)n2)C[C@@H](C)N1 [compound 490]
500 to 2800 nM	C=C(F)c1ccc(N2CCN[C@@H](CC(C)(C)F)C2)nc1C(=O)c1cccnc1N [compound 506]
> 2800 nM	CC(C)(C)C1CN(c2ccc(C(F)(F)F)c(C(=O)c3cccnc3N)n2)CCN1 (centres unmarked) [compound 456]
< 50 nM	CC(C)C[C@H]1CN(c2ccc(-c3ccccc3F)c(C(=O)c3cccnc3N)n2)CCN1 [compound 435]
500 to 2800 nM	C=C(F)c1ccc(N2CCNC(C(F)(F)F)C2)nc1C(=O)c1cccnc1N (centres unmarked) [compound 504]
> 2800 nM	Nc1ncccc1C(=O)c1nc(N2CCNC(C(F)(F)F)C2)ccc1C(F)(F)F (centres unmarked) [compound 477]
> 2800 nM	NCC1CCCC(CNc2ccc(C(F)(F)F)c(C(=O)c3cccnc3N)n2)C1 (centres unmarked) [compound 429]
> 2800 nM	Nc1ncccc1C(=O)c1nc(NCC2CCC(N)CC2)ccc1C(F)(F)F (centres unmarked) [compound 460]
< 50 nM	C=C(F)c1ccc(N2CCN[C@@H](c3ccccc3)C2)nc1C(=O)c1cccnc1N [compound 475]
< 50 nM	CC[C@](CN)(CNc1ccc(C(F)(F)F)c(C(=O)c2cccnc2N)n1)c1ccccc1 [compound 463]
< 50 nM	C=C(F)c1ccc(N2CCNC(c3ccccc3)C2)nc1C(=O)c1cccnc1N (centres unmarked) [compound 457]
< 50 nM	NCC(CNc1ccc(C(F)(F)F)c(C(=O)c2cccnc2N)n1)c1ccccc1 (centres unmarked) [compound 431]
< 50 nM	CC[C@@H]1CN(c2ccc(C(F)(F)F)c(C(=O)c3cccnc3N)n2)C[C@H](CC(C)C)N1 [compound 488]

Source: patent US8741931B2, “Kinase inhibitors” (priority 2007, dated 2014)
